The results in this text go back to PubChem BioAssay (NCI).

Some test systems named below: UACC-257 melanoma; CCRF-CEM leukemia; SK-OV-3 ovarian; U251 CNS; HL-60(TB) leukemia; NCI-H23 lung; LOX IMVI melanoma; SK-MEL-2 melanoma; RPMI-8226 leukemia; SNB-19 CNS.
Holding throughout (assay): NCI anticancer screen, dose series, 48 h

Structures are written as SMILES. “And” between values parts separate entries of the source, which are not always exact repeats. Equal values may be shown once.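 48-hour exposure; five concentrations; linearly interpolated endpoints. GI50: concentration for 50% inhibition of growth. The concentration for full growth arrest is given as TGI.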

Turning to `O=c1c(-c2ccc(O)cc2)coc2cc(OC3OC(CO)C(O)C(O)C3O)cc(O)c12` (centres undefined), the TGI in the experiment on UACC-257 melanoma, in the experiment with CCRF-CEM leukemia, with SK-OV-3 ovarian, in the experiment with U251 CNS, in the experiment with HL-60(TB) leukemia and in the experiment on NCI-H23 lung was more than 100 µM throughout. The TGI in the experiment with LOX IMVI melanoma, in the experiment on SK-MEL-2 melanoma, with RPMI-8226 leukemia and in the experiment with SNB-19 CNS was more than 100 µM throughout. For the same compound, the GI50 was more than 10 µM in the experiment on CCRF-CEM leukemia; more than 100 µM with SK-OV-3 ovarian; more than 100 µM in the experiment on U251 CNS; more than 100 µM in the experiment with HL-60(TB) leukemia; more than 100 µM in the experiment on NCI-H23 lung; more than 100 µM with SK-MEL-2 melanoma. Also, in the experiment on RPMI-8226 leukemia, the GI50 is more than 10 µM.

As to `O=C1C(=O)N(c2cccc(C(F)(F)F)c2)C(=O)C(=O)C1c1nc2ccccc2s1`, the TGI in the experiment with UACC-257 melanoma is more than 100 µM; in the experiment with CCRF-CEM leukemia, 65.1 µM; in the experiment on SK-OV-3 ovarian, more than 100 µM; with U251 CNS, more than 100 µM; in the experiment with HL-60(TB) leukemia, 59.8 µM; in the experiment on NCI-H23 lung, more than 100 µM. Also, the TGI with LOX IMVI melanoma, with SK-MEL-2 melanoma, with RPMI-8226 leukemia and with SNB-19 CNS was more than 100 µM throughout.

As for `C1CCN2CC3CCCN4CCCC(C2C1)C34` (centres undefined), the TGI with UACC-257 melanoma, with CCRF-CEM leukemia, with SK-OV-3 ovarian, in the experiment on U251 CNS, with HL-60(TB) leukemia and in the experiment with NCI-H23 lung was more than 100 µM in each case. Also, the TGI with LOX IMVI melanoma, with SK-MEL-2 melanoma, with RPMI-8226 leukemia and in the experiment with SNB-19 CNS was more than 100 µM throughout.

In the case of `COCOCC[C@@H]1CC=CC(NC(=O)OCc2ccccc2)C1/C=C/C(=O)CCC1OCCO1` (some centres undefined), the TGI in the experiment on UACC-257 melanoma was 66.3 µM; in the experiment with CCRF-CEM leukemia, 75.7 µM; in the experiment on SK-OV-3 ovarian it was more than 100 µM; in the experiment on U251 CNS, 70.6 µM; in the experiment with HL-60(TB) leukemia it was 51 µM; with NCI-H23 lung, 97.8 µM. Besides, the TGI with LOX IMVI melanoma was 34 µM; with SK-MEL-2 melanoma, more than 76.5 µM; with RPMI-8226 leukemia, 63.5 µM; with SNB-19 CNS, more than 100 µM.

For `C=C1C(=O)OC2C1C(OC(=O)/C(C)=C\C)CC1(CO1)C1C(O)C=C(C)C21O` (centres undefined), the TGI in the experiment on UACC-257 melanoma is 21.7 µM; with CCRF-CEM leukemia, more than 100 µM; in the experiment on SK-OV-3 ovarian, 30.5 µM; with U251 CNS, 24.5 µM; with HL-60(TB) leukemia it was more than 100 µM; in the experiment with NCI-H23 lung, 27.2 µM. The TGI was 30.6 µM in the experiment on LOX IMVI melanoma, 12.5 µM with SK-MEL-2 melanoma, 22.2 µM in the experiment with RPMI-8226 leukemia and 35.2 µM in the experiment with SNB-19 CNS.

In the case of `NC(=Nc1nc(-c2ccccn2)cc2ccccc12)c1ccccn1`, the TGI with UACC-257 melanoma was 0.794 µM and 1.15 µM; in the experiment with SK-OV-3 ovarian it was more than 19.4 µM; in the experiment with U251 CNS it was 18.6 µM; with HL-60(TB) leukemia, 0.0598 µM and 0.251 µM; in the experiment with NCI-H23 lung it was more than 61.6 µM; with LOX IMVI melanoma it was 0.677 µM and 1.23 µM. The TGI was more than 89.3 µM in the experiment with SK-MEL-2 melanoma, 0.515 µM in the experiment on RPMI-8226 leukemia and more than 89.5 µM with SNB-19 CNS. Further, the GI50 is 0.00229 µM with CCRF-CEM leukemia; 0.263 µM in the experiment on SK-OV-3 ovarian; 0.111 µM with U251 CNS; 0.00104 µM with HL-60(TB) leukemia; 0.0743 µM in the experiment with NCI-H23 lung; 0.158 µM in the experiment with LOX IMVI melanoma. The GI50 with SK-MEL-2 melanoma is 0.477 µM and 0.272 µM; with RPMI-8226 leukemia, less than 0.0175 µM.

Consider `O=S(=O)(Nc1ccc2ccccc2c1)c1ccc(-c2cnc(C3CC3)o2)cc1`, for which the GI50 in the experiment with UACC-257 melanoma was 10.4 µM; in the experiment with CCRF-CEM leukemia, 1.64 µM; in the experiment on SK-OV-3 ovarian, 1.54 µM; with U251 CNS it was 1.25 µM; with HL-60(TB) leukemia it was 0.407 µM; in the experiment on NCI-H23 lung, 3.38 µM. Moreover, the GI50 in the experiment on LOX IMVI melanoma is 0.725 µM; in the experiment with SK-MEL-2 melanoma, 1.43 µM; in the experiment on RPMI-8226 leukemia, 3.18 µM; with SNB-19 CNS, 1.49 µM. The TGI was 31.5 µM with UACC-257 melanoma; more than 100 µM in the experiment with CCRF-CEM leukemia; 32.3 µM in the experiment with SK-OV-3 ovarian; 15.7 µM in the experiment with U251 CNS; 6.99 µM with HL-60(TB) leukemia; 22.5 µM in the experiment with NCI-H23 lung. In addition, the TGI with LOX IMVI melanoma was 17.1 µM; in the experiment with SK-MEL-2 melanoma, 20.6 µM; in the experiment on RPMI-8226 leukemia, 24.8 µM; in the experiment with SNB-19 CNS it was more than 100 µM.

For the compound `O=C(Nc1ccc2c(c1)OCO2)C(=O)c1c[nH]c2cc(F)ccc12`, the GI50 with UACC-257 melanoma was 1.7 µM; in the experiment on CCRF-CEM leukemia, 5.33 µM; with SK-OV-3 ovarian it was 4.24 µM; in the experiment on U251 CNS it was 9.17 µM; with HL-60(TB) leukemia, 4.51 µM; in the experiment on NCI-H23 lung, 13.9 µM. In addition, the GI50 in the experiment with LOX IMVI melanoma was 0.476 µM; in the experiment with SK-MEL-2 melanoma, 5.19 µM; with RPMI-8226 leukemia it was 50 µM; in the experiment on SNB-19 CNS, 7.74 µM. Besides, the TGI is 15.5 µM in the experiment with UACC-257 melanoma; more than 100 µM in the experiment on CCRF-CEM leukemia; 15.2 µM in the experiment with SK-OV-3 ovarian; 51.7 µM in the experiment with U251 CNS; more than 100 µM with HL-60(TB) leukemia; 55.4 µM in the experiment on NCI-H23 lung. The TGI in the experiment on LOX IMVI melanoma is more than 100 µM; in the experiment with SK-MEL-2 melanoma, 31.1 µM; with RPMI-8226 leukemia, more than 100 µM; in the experiment with SNB-19 CNS, 77.3 µM.

On to `CC(=O)O/N=C(Cl)/C(Cl)=N/OC(C)=O`, for which the TGI in the experiment with UACC-257 melanoma, in the experiment with CCRF-CEM leukemia, in the experiment with SK-OV-3 ovarian, with U251 CNS, in the experiment on HL-60(TB) leukemia and in the experiment with NCI-H23 lung was more than 100 µM in each case. Further, the TGI in the experiment with LOX IMVI melanoma, in the experiment on SK-MEL-2 melanoma, in the experiment with RPMI-8226 leukemia and in the experiment on SNB-19 CNS was more than 100 µM each time.
